{"source": "paper PMC3433420", "about": "(PLoS ONE, 2012)", "key": {"[1]": {"biological_target": "T1, PIK3R3-NC tandem SH2 domains (Homo sapiens, UniProt Q92569)", "T1 construct": "the tandem protein was included in our analysis with all internal amino acids linking the domains; 6X His; thioredoxin; made in house; host or cells: E. coli BL21(DE3)pLysS", "experiment": "FP saturation binding assay", "details": "protein PIK3R3-NC; FP, high-confidence ErbB interactions; mean of replicate hits", "procedure": "(§1) (See Figure 1A) Rhodamine-labeled peptides were dissolved in assay buffer (20 mM HEPES, 100 mM KCl, 0.1% Tween-20, 5 mM DTT, pH 7.8), diluted to a concentration of 20 nM, and plated into black 384-well plates (Corning, Corning, NY) at 5 µL/well using a Perkin Elmer EP3 pipetting workstation (V&P Scientific, Inc., San Diego, CA). SH2, PTB, and thioredoxin control proteins were plated into the first column of 2 mL 96-well plates (Corning) at a concentration of 20 µM and serially diluted 1∶2 into freezing buffer (300 mM NaCl, 50 mM Na2PO4, pH 8, 20% glycerol v/v) eleven times using a Tecan Freedom EVO 100 workstation (Tecan, Männedorf, Switzerland). For the interaction assay, 5 µL of each of the twelve protein concentrations was added to the peptide-containing 384-well plates via the EP3 resulting in a protein dilution range of 0.002–10 µM and a final volume of 10 µL; peptide concentration was fixed at 10 nM. Peptide/protein samples were incubated for 20 minutes at room temperature in the dark and fluorescence polarization (FP) was measured in an Analyst GT multimode reader (Molecular Devices, Sunnyvale, CA) with excitation and emission wavelengths of 530 nm and 555 nm, respectively. Experimental values were output as millipolarization (mP) units and imported into MATLAB (The MathWorks, Inc., Natick, MA) in which equation (1) was used to determine dissociation constants (KDs) for each protein/peptide pairing by least squares nonlinear regression. [drawing 1] (1)\n(§2) FP was described by the following equation: P=Iparallel-IperpendicularIparallel+Iperpendicular, where “P” denotes polarization, and “I” denotes the fluorescent intensity relative to the plane of incident light. Experimental values were output as millipolarization (mP) units and imported into MATLAB where the following equation was used to determine dissociation constants (KDs) for each protein/peptide pairing by least squares nonlinear regression:\n(§3) Pobs=Pmax∙ProteinKD+Protein [picture] (1)\n(§4) Peptides were initially tested for systematic plate effects across protein dilutions and nonspecific binding to thioredoxin by linear regression analysis and any effects were regressed out. The median baseline control polarization value for each plate was then subtracted from each data point to make each binding curve intersect at zero. Plates with excessive variation in baseline control polarizations on both a global and run-specific manner (Dixon’s Q test, p < 0.05) were excluded from further analysis. Outliers in each binding curve were identified and removed using an iterative procedure as follows. The residuals for each fit were used to calculate a global standard deviation of the residuals (GSDR) for each concentration of SH2 domain over all interactions, and individual data points with residuals < or > two GSDR from the global mean residual were flagged as outliers. The outlier with the largest residual from each interaction was removed and nonlinear regression was again performed. This procedure was repeated if additional outliers were identified for an interaction, discarding the interaction if the number of outliers exceeded three. […] In order to further control our false positive rate against hidden confounding variables producing binding artifacts, we sought to determine whether there was a significant relationship between the strength of an interaction and its technical replication rate at our stringent significance and filtering thresholds. We performed logistic regression on the proportion of successful replicates for each interaction query against KD for all interactions (Figure S15A). […] This is related to the observation that the majority of interactions detected by FP are tight (Figure S15B). With this logit model, we assigned a probability to each peptide-protein interaction in our data by using a binomial proportions test to compare the observed versus the expected replication rate at the particular KD of that interaction (Table S4). […]"}, "[2]": {"biological_target": "T2, PIK3R1-N SH2 domain (Homo sapiens, UniProt P27986)", "T2 construct": "thioredoxin; made in house; host or cells: E. coli BL21(DE3)pLysS", "T2 sequence (P27986 333-428 limits assumed)": "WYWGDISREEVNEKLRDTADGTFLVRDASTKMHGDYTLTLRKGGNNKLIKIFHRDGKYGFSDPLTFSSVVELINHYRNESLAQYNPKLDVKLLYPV", "experiment": "biochemical", "format": "binding", "details": "Protein PIK3R1-N; FP saturation binding, high-confidence ErbB interactions; mean over replicate hits"}, "[3]": {"biological_target": "T3, PIK3R3-N SH2 domain (Homo sapiens, UniProt Q92569)", "T3 construct": "6X His; thioredoxin; made in house; host or cells: E. coli BL21(DE3)pLysS", "experiment": "FP saturation binding assay", "details": "protein PIK3R3-N; FP, high-confidence ErbB interactions; mean of replicate hits", "procedure": "as §1, §2, §3, §4"}, "[4]": {"biological_target": "GRB7 SH2 domain (Homo sapiens, UniProt Q14451)", "sequence (Q14451 431-527 limits assumed)": "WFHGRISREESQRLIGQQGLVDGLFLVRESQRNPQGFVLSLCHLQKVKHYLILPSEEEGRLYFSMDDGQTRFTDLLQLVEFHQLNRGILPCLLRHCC", "set-up": "6X His; thioredoxin; made in house; host or cells: E. coli BL21(DE3)pLysS", "details": "Protein GRB7, most recent PM interactions, cited from earlier work"}, "[5]": {"biological_target": "SH2 and PTB domains", "details": "most recent PM interactions, cited from earlier work", "excerpt": "Supplement pone.0044471.s022.xlsx, sheet \"Most recent PM interactions\" | column: Kd || Supplement pone.0044471.s022.xlsx, sheet \"All original PM interactions\" | column: Kd"}}, "note": "Read-outs that look alike come from different tables or passages of the source. Residues, ends and D or L forms follow the SMILES beside them."}
{"molecule": "CSCC[C@H](NC(=O)[C@@H]1CCCN1C(=O)[C@H](CCSC)NC(=O)[C@H](Cc1ccc(OP(=O)(O)O)cc1)NC(=O)CNC(=O)[C@H](CO)NC(=O)[C@H](CO)NC(=O)[C@@H]1CCCN1)C(=O)N[C@@H](CC(N)=O)C(=O)N[C@@H](CCC(N)=O)C(=O)NCC(=O)N[C@@H](CC(N)=O)C(=O)N[C@@H](CC(=O)O)C(=O)O", "note": "[ErbB3 1054 13-mer] (HELM PEPTIDE1{P.S.S.G.[O=C([C@H](Cc1ccc(OP(=O)(O)O)cc1)N[*:1])[*:2]].M.P.M.N.Q.G.N.D}$$$$V2.0)", "values": [{"measurement": "Kd", "setting": "[1]", "value": 260, "unit": "nM"}, {"measurement": "Kd", "setting": "[2]", "value": 1800, "unit": "nM"}]}
{"molecule": "CSCC[C@H](NC(=O)[C@H](Cc1ccc(O)cc1)NC(=O)[C@H](CCC(=O)O)NC(=O)[C@H](Cc1ccc(OP(=O)(O)O)cc1)NC(=O)[C@H](CCC(=O)O)NC(=O)[C@H](CCC(=O)O)NC(=O)[C@H](CC(=O)O)NC(=O)[C@@H](N)CCC(=O)O)C(=O)N[C@@H](CC(N)=O)C(=O)N[C@@H](CCCNC(=N)N)C(=O)N[C@@H](CCCNC(=N)N)C(=O)N[C@@H](CCCNC(=N)N)C(=O)N[C@@H](CC(=O)O)C(=O)O", "note": "[ErbB3 1197 13-mer] (HELM PEPTIDE1{E.D.E.E.[O=C([C@H](Cc1ccc(OP(=O)(O)O)cc1)N[*:1])[*:2]].E.Y.M.N.R.R.R.D}$$$$V2.0)", "values": [{"measurement": "Kd", "setting": "[1]", "value": 200, "unit": "nM"}, {"measurement": "Kd", "setting": "[3]", "value": 1320, "unit": "nM"}]}
{"molecule": "EHKDNIGSQpYLLNWCVQd [ErbB1 813]", "values": [{"measurement": "Kd", "setting": "[4]; ref Kaushansky et al. Mol Biosys 2008", "value": 460, "unit": "nM"}, {"measurement": "Kd", "setting": "[5]; Protein ABL2, ref Kaushansky et al. Mol Biosys 2008", "value": 200, "unit": "nM"}, {"measurement": "Kd", "setting": "[5]; Protein GRB10, ref Kaushansky et al. Mol Biosys 2008", "value": 350, "unit": "nM"}, {"measurement": "Kd", "setting": "[5]; Protein ITK, ref Kaushansky et al. Mol Biosys 2008", "value": 310, "unit": "nM"}, {"measurement": "Kd", "setting": "[5]; Protein NCK2, ref Kaushansky et al. Mol Biosys 2008", "value": 200, "unit": "nM"}, {"measurement": "Kd", "setting": "[5]; Protein PIK3R1-C, ref Kaushansky et al. Mol Biosys 2008", "value": 1850, "unit": "nM"}, {"measurement": "Kd", "setting": "[5]; Protein PIK3R1-NC, ref Kaushansky et al. Mol Biosys 2008", "value": 1820, "unit": "nM"}, {"measurement": "Kd", "setting": "[5]; Protein PIK3R3-NC, ref Kaushansky et al. Mol Biosys 2008", "value": 1870, "unit": "nM"}, {"measurement": "Kd", "setting": "[5]; Protein RASA1-C, ref Kaushansky et al. Mol Biosys 2008", "value": 1950, "unit": "nM"}, {"measurement": "Kd", "setting": "[5]; Protein RASA1-NC, ref Kaushansky et al. Mol Biosys 2008", "value": 160, "unit": "nM"}, {"measurement": "Kd", "setting": "[5]; Protein SH2D1B, ref Kaushansky et al. Mol Biosys 2008", "value": 1600, "unit": "nM"}, {"measurement": "Kd", "setting": "[5]; Protein SH2D3C, ref Kaushansky et al. Mol Biosys 2008", "value": 50, "unit": "nM"}, {"measurement": "Kd", "setting": "[5]; Protein SHB, ref Kaushansky et al. Mol Biosys 2008", "value": 280, "unit": "nM"}, {"measurement": "Kd", "setting": "[5]; Protein SHE, ref Kaushansky et al. Mol Biosys 2008", "value": 1380, "unit": "nM"}, {"measurement": "Kd", "setting": "[5]; Protein SHF, ref Kaushansky et al. Mol Biosys 2008", "value": 1060, "unit": "nM"}, {"measurement": "Kd", "setting": "[5]; Protein SRC, ref Kaushansky et al. Mol Biosys 2008", "value": 80, "unit": "nM"}, {"measurement": "Kd", "setting": "[5]; Protein SYK-NC, ref Kaushansky et al. Mol Biosys 2008", "value": 240, "unit": "nM"}, {"measurement": "Kd", "setting": "[5]; Protein TENC1, ref Kaushansky et al. Mol Biosys 2008", "value": 1150, "unit": "nM"}, {"measurement": "Kd", "setting": "[5]; Protein TNS3, ref Kaushansky et al. Mol Biosys 2008", "value": 1890, "unit": "nM"}, {"measurement": "Kd", "setting": "[5]; Protein VAV1, ref Kaushansky et al. Mol Biosys 2008", "value": 370, "unit": "nM"}, {"measurement": "Kd", "setting": "[5]; Protein VAV2, ref Kaushansky et al. Mol Biosys 2008", "value": 470, "unit": "nM"}, {"measurement": "Kd", "setting": "[5]; Protein VAV3, ref Kaushansky et al. Mol Biosys 2008", "value": 960, "unit": "nM"}, {"measurement": "Kd", "setting": "[5]; Protein YES1, ref Kaushansky et al. Mol Biosys 2008", "value": 22, "unit": "nM"}]}
{"molecule": "MGDLVDAEEpYLVPQQGF [ErbB2 1023]", "values": [{"measurement": "Kd", "setting": "[4]; ref Jones et al. 2006 / Kaushansky et al. Chem and Biol 2008", "value": 1800, "unit": "nM"}, {"measurement": "Kd", "setting": "[5]; Protein BLK, ref Jones et al. 2006 / Kaushansky et al. Chem and Biol 2008", "value": 600, "unit": "nM"}, {"measurement": "Kd", "setting": "[5]; Protein ITK, ref Jones et al. 2006 / Kaushansky et al. Chem and Biol 2008", "value": 450, "unit": "nM"}, {"measurement": "Kd", "setting": "[5]; Protein PIK3R1-NC, ref Jones et al. 2006 / Kaushansky et al. Chem and Biol 2008", "value": 1640, "unit": "nM"}, {"measurement": "Kd", "setting": "[5]; Protein PIK3R2-N, ref Jones et al. 2006 / Kaushansky et al. Chem and Biol 2008", "value": 1950, "unit": "nM"}, {"measurement": "Kd", "setting": "[5]; Protein PIK3R3-N, ref Jones et al. 2006 / Kaushansky et al. Chem and Biol 2008", "value": 1930, "unit": "nM"}, {"measurement": "Kd", "setting": "[5]; Protein PIK3R3-NC, ref Jones et al. 2006 / Kaushansky et al. Chem and Biol 2008", "value": 530, "unit": "nM"}, {"measurement": "Kd", "setting": "[5]; Protein PLCG1-C, ref Jones et al. 2006 / Kaushansky et al. Chem and Biol 2008", "value": 1460, "unit": "nM"}, {"measurement": "Kd", "setting": "[5]; Protein RASA1-N, ref Jones et al. 2006 / Kaushansky et al. Chem and Biol 2008", "value": 2000, "unit": "nM"}, {"measurement": "Kd", "setting": "[5]; Protein RASA1-NC, ref Jones et al. 2006 / Kaushansky et al. Chem and Biol 2008", "value": 1770, "unit": "nM"}, {"measurement": "Kd", "setting": "[5]; Protein SRC, ref Jones et al. 2006 / Kaushansky et al. Chem and Biol 2008", "value": 760, "unit": "nM"}, {"measurement": "Kd", "setting": "[5]; Protein SUPT6H, ref Jones et al. 2006 / Kaushansky et al. Chem and Biol 2008", "value": 910, "unit": "nM"}, {"measurement": "Kd", "setting": "[5]; Protein SYK-NC, ref Jones et al. 2006 / Kaushansky et al. Chem and Biol 2008", "value": 370, "unit": "nM"}, {"measurement": "Kd", "setting": "[5]; Protein YES1, ref Jones et al. 2006 / Kaushansky et al. Chem and Biol 2008", "value": 1170, "unit": "nM"}]}
